Experimental data from patent publication US6583172B1, “Anticonvulsant derivatives useful in treating chronic neurodegenerative disorders” (priority 1999, dated 2003).
Where no end group is shown, it is not given here.

Columns and labels:
rat hippocampal cells = experiment: Neurite outgrowth in rat hippocampal cell cultures, MAP-2 immunofluorescence; assay type: cell-based; conditions: seven days in culture, concentrations ranging from 100 nM to 100 μM, P<0.05
Protocol: In studies in vitro, cultures of rat hippocampal and cerebral cortical cells were established from embryonic day 18 pups. The cells were grown in culture wells ([…]), or the neurotrophic factors BDNF (brain-derived neurotrophic, 10 ng) and α-MSH (alpha-melanocyte stimulating hormone, 50 nM), or vehicle (isotonic saline). Each compound was added to the culture medium in a specified set of wells at the time the cells were plated and then again four days later when the culture media was removed and replaced with fresh media. On the seventh day in culture, the cells were treated with formalin, a tissue fixative. Subsequently, the cells were treated with a fluorescein-labeled antibody specific for microtubule associated protein-2 (MAP-2), a selective marker for dendritic processes. The amount of fluorescein-labeled antibody bound to MAP-2 (FITC signal) in each well was analytically determined. This information was then used to calculate the relative degree of neurite outgrowth for the cells in each well. […] FIG. 1 is a bar graph illustrating the effects of topiramate, BDNF,α-MSH and GPI on neurite outgrowth in rat hippocampal cell cultures, as measured by MAP-2 immunofluorescence. […]

[1] = system: rat cerebral cortical cells; experiment: Neurite outgrowth in rat cerebral cortical cell cultures, MAP-2 immunofluorescence; assay type: cell-based; conditions: p<0.05
Protocol: In studies in vitro, cultures of rat hippocampal and cerebral cortical cells were established from embryonic day 18 pups. The cells were grown in culture wells (plates) for seven days in the presence of various concentrations of topiramate ([…]), or the neurotrophic factors BDNF (brain-derived neurotrophic, 10 ng) and α-MSH (alpha-melanocyte stimulating hormone, 50 nM), or vehicle (isotonic saline). Each compound was added to the culture medium in a specified set of wells at the time the cells were plated and then again four days later when the culture media was removed and replaced with fresh media. On the seventh day in culture, the cells were treated with formalin, a tissue fixative. Subsequently, the cells were treated with a fluorescein-labeled antibody specific for microtubule associated protein-2 (MAP-2), a selective marker for dendritic processes. The amount of fluorescein-labeled antibody bound to MAP-2 (FITC signal) in each well was analytically determined. This information was then used to calculate the relative degree of neurite outgrowth for the cells in each well. […] FIG. 2 is a bar graph illustrating the effects of topiramate, BDNF,α-MSH and GPI on neurite outgrowth in rat cerebral cortical cell cultures, as measured by MAP-2 immunofluorescence. […]

rat facial nerve = experiment: Rat facial nerve compression model of peripheral nerve injury, restoration of whisker movement; assay type: in vivo
Protocol: In the study in vivo, topiramate was evaluated in a rat facial nerve compression model of peripheral nerve injury. Rats were anesthetized, their skin and muscle excised to visualize the facial nerve. The nerve was injured near the stylom by compression with forceps. The wound was sutured and the rat allowed to recover before compound administration. The rats were divided into three groups: vehicle-treated, topiramate-treated (p.o., 20 mg/kg) and α-MSH-treated (s.c., 1 mg/kg). Compounds were administered twice daily for 14 days post-surgery. Facial nerve compression causes paralysis of the whisker muscle ipsilateral to the injury site. Restoration of whisker movement (lesioned versus non-lesioned side) was monitored daily for 14 days. Spontaneous recovery of whisker movement was detected as early as 10 days post-surgery with full recovery achieved by 13 days.
FIG. 3 is a line graph illustrating the effects of topiramate and α-MSH on the restoration of facial nerve function in rats, as measured by the rate whisker movement. The total rate of whisker movement on the side that the facial nerve was not injured was assigned a value of 100. Whisker movement on the side of the injured nerve is presented as a percent ±SEM of the whisker movement on the non-injured side. The rate of whisker movement was monitored visually by a skilled observer blinded to the treatment each rat received.

[2] = system: simple and complex partial seizures and secondarily generalized seizures; conditions: human epilepsy; cited from earlier work
[3] = system: rodent models of epilepsy; conditions: several rodent models of epilepsy; cited from earlier work
[4] = system: animal model of kindled epilepsy; conditions: cited from earlier work

Row | Compound | increase in neurite outgrowth (FITC signal, MAP-2) versus vehicle (rat hippocampal cells) | neurite outgrowth ([1]; 100 nM) | neurite outgrowth ([1]; 10 μM) | whisker movement recovery, day 11 (rat facial nerve; p.o., 20 mg/kg twice daily, day 11 post-surgery, vehicle=19%, p<0.001) [%] | whisker movement recovery, day 12 (rat facial nerve; p.o., 20 mg/kg twice daily, day 12 post-surgery, vehicle=68%, p<0.01) [%] | efficacy in treating seizures in clinical trials [2] | block of seizures [3] | block of seizures [4] | increase in whisker movement recovery versus vehicle, days 11 and 12 (rat facial nerve; s.c., 1 mg/kg twice daily, days 11 and 12 post-surgery)
1 | CC1(C)O[C@@H]2[C@@H](CO[C@@]3(COS(N)(=O)=O)OC(C)(C)O[C@@H]23)O1 [topiramate, 2,3:4,5-bis-O-(1-methylethylidene)-β-D-fructopyranose sulfamate] | significantly higher | 119 % of control | 119 % of control | 60 | 92 | effective as adjunctive therapy or as monotherapy | effectively block seizures | effectively block seizures | 
2 | α-MSH: alpha-melanocyte stimulating hormone, neurotrophic factor used as comparator (SYSMEHFRWGKPV; ends and bridges not checked; UniProt P01189 138-150, looked up) |  |  |  |  |  |  |  |  | smaller, statistically nonsignificant increase
